Test results published in US8143275B2, “Use of triazolopyrimidine derivatives as microbicides” (LANXESS Deutschland GmbH, priority 2001, dated 2012).

What was measured:
Experiment in all cases: Inhibitory test with giant colonies of Basidiomycetes
Format in all cases: cell-based
Conditions in all cases: 6 ppm active compound in agar medium, 26° C., compared to medium without active compound
[1] = tested on: Sterum sanguinolentum (P6)
Procedure: (§1) Inhibitory test with giant colonies of Basidiomycetes
(§2) Mycelium pieces were punched out of colonies of Gloeophyllum trabeum (P1), Coniophora puteana (P2), Poria placenta (P3), Lentinus tigrinus (P4), Coriolus versicolor (P5) and Sterum sanguinolentum (P6) and incubated at 26° C. on an agar medium. The inhibition of the growth of the fungal threads on the active-compound-containing medium (concentration of active compound: 6 ppm) was compared to the longitudinal growth of medium without added active compound and rated in inhibition percent.

[2] = tested on: Lentinus tigrinus (P4)
Procedure: as §1, §2

[3] = tested on: Gloeophyllum trabeum (P1)
Procedure: as §1, §2

[4] = tested on: Coriolus versicolor (P5)
Procedure: as §1, §2

[5] = tested on: Poria placenta (P3)
Procedure: as §1, §2

[6] = tested on: Coniophora puteana (P2)
Procedure: as §1, §2

| Structure (SMILES) | P6: inhibition of the growth of the fungal threads [1] | P4: inhibition of the growth of the fungal threads [2] | P1: inhibition of the growth of the fungal threads [3] | P5: inhibition of the growth of the fungal threads [4] | P3: inhibition of the growth of the fungal threads [5] | P2: inhibition of the growth of the fungal threads [6] |
| --- | --- | --- | --- | --- | --- | --- |
| C[C@H](Nc1c(-c2c(F)cc(F)cc2F)c(Cl)nc2ncnn12)C(F)(F)F [No 11] | 100% | 100% | 100% | 100% | 100% | 100% |
| Fc1ccccc1-c1c(Cl)nc2ncnn2c1N1CCCCCC1 [No 7] | 100% | 94% | 100% | 100% | – | 100% |
| Fc1cccc(-c2c(Cl)nc3ncnn3c2NC2CCCC2)c1 [No 1] | – | – | 80% | 91% | – | 100% |
| CC1CCN(c2c(-c3c(F)cc(F)cc3F)c(Cl)nc3ncnn23)CC1 [No 9] | 100% | 100% | 100% | 100% | 100% | 100% |
| CC1CCN(c2c(-c3c(F)cccc3Cl)c(Cl)nc3ncnn23)CC1 [No 10] | 100% | 100% | 100% | 100% | 100% | 100% |
| Clc1nc2ncnn2c(NC2CCCC2)c1-c1ccccc1 [No 5] | – | – | – | 100% | – | – |
| Fc1cccc(F)c1-c1c(Cl)nc2ncnn2c1NC1CCCC1 [No 3] | 100% | 100% | 100% | 100% | – | 100% |
| CC(C)Nc1c(-c2ccc(Cl)cc2Cl)c(Cl)nc2ncnn12 [No 6] | 100% | – | 95% | 95% | – | 100% |
| Fc1cc(F)c(-c2c(Cl)nc3ncnn3c2NC2CCCC2)c(F)c1 [No 4] | – | – | – | 100% | – | – |
| Clc1ccccc1-c1c(Cl)nc2ncnn2c1NC1CCCC1 [No 2] | 100% | 94% | 100% | 100% | – | 100% |
| Fc1cccc(F)c1-c1c(Cl)nc2ncnn2c1N1CCCCCC1 [No 8] | 100% | 100% | 100% | 100% | 100% | 100% |
